Read-outs that look alike come from different tables or passages of the source.
Tests used:
MDA MB231 cells = experiment: MDA MB231 proliferation under hypoxia ([3H]-thymidine incorporation); format: cell-based, human; conditions: MDA MB231, 1% O2, 48 h post treatment
[1] = lethal case dosed with 18 mg/m2 F60008; cited from earlier work
[2] = tested on: RPB1 in C342T XPB mutant cell line; experiment: RPB1 degradation in C342T XPB knock-in cells, western blot; format: cell-based, human; conditions: XPB C342T cells, 0.1 mM triptolide (so in the source); 0.1 μM)
Description: (§1) Cells and culture conditions. Primary astrocytes (Lonza, Walkersville, Md.; ABM™ Basal Media with AGM™ SingleQuots™ Supplement Pack), fibroblast (ATCC; Fibroblast Basal Medium (ATCC© PCS-201-030™) with Fibroblast Growth Kit-Serum-free (ATCC© PCS-201-040™)), airway epithelial cell (ATCC; Airway Epithelial Cell Basal Medium (ATCC© PCS-300-030™) with Bronchial Epithelial Cell Growth Kit (ATCC© PCS-300-040™)), renal proximal tubule (ATCC; Renal Epithelial Cell Basal Medium (ATCC© PCS-400-030™) with Renal Epithelial Cell Growth Kit (ATCC© PCS-400-040™)), prostate epithelial cell (Lonza; PrEGM™ BulletKit™) and mammary epithelial cell (Lonza; MEBM™ BulletKit™) were kept in a humidified incubator at 37° C. adjusted to 5% CO2. […]
(§2) Western blot analysis. […] Antibody-protein complexes were detected using enhanced chemiluminescence (ECL) immunoblotting detection reagent (EMD Millipore).

[3] = tested on: T7115 (C342T XPB knock-in HEK293T cells); experiment: Proliferation of XPB C342T knock-in cell line T7115 ([3H]-thymidine incorporation); format: cell-based, human; conditions: C342T XPB knock-in versus isogenic WT 293T
Description: as §1

MCF-7 = MCF-7 proliferation under hypoxia ([3H]-thymidine incorporation); format: cell-based, human; conditions: MCF-7, 1% O2, 48 h post treatment
HepG2 = HepG2 proliferation under hypoxia ([3H]-thymidine incorporation); format: cell-based, human; conditions: HepG2, 1% O2, 48 h post treatment
PC3 cells = experiment: PC3 proliferation under hypoxia or normoxia ([3H]-thymidine incorporation); format: cell-based, human; conditions: for IC50: Homo sapiens, PC-3, 48 h, 48 h post treatment, read-out: IC50
Experimental: (§3) Proliferation and viability assays. [^3H]-thymidine incorporation. HEK293T cells (10,000 cells/well) were seeded into 96-well plates then cultured in DMEM plus 10% FBS and 1% penicillin/streptomycin at 37° C. with 5% CO2 overnight. Drugs were added at indicated concentrations and incubation was continued for an additional 24 h. For hypoxia, PC3 (5,000 cells/well) were exposed to 1% O2 (Airgas) in a humidified hypoxia chamber (Billups-Rothenberg) in 37° C. for 48 h prior to drug exposure for 48 h. Treated cells were then pulsed using an aliquot of 1 μCi of [^3H]-thymidine (Perkin Elmer) per well for an additional 6 h. Radiolabelled cells were harvested onto a printed Filtermat A glass fiber filter (Perkin Elmer) using a Tomtec Harvester 96 Mach III M. Betaplate Scint (Perkin Elmer) scintillation fluid was added to radiolabelled filters followed by scintillation counting on Microbeta2 LumiJET Microplate Counter (Perkin Elmer).

Rpb1 in 293T WT cells = experiment: RPB1 degradation in 293T WT cells, western blot; format: cell-based, human; conditions: 0.1 mM triptolide (so in the source); 0.1 μM)
Description: as §1, §2

HeLa = HeLa proliferation under hypoxia ([3H]-thymidine incorporation); format: cell-based, human; conditions: 1% O2, 48 h post treatment
TFIIH = target: T1, TFIIH (Homo sapiens, UniProt P19447); experiment: DNA-dependent ATPase activity assay of TFIIH; format: biochemical; conditions: 200 nM triptolide
T1 construct: made in house
Experimental: ATPase activity assay. The TFIIH complex was purified and its DNA-dependent ATPase assay was performed as previously described (Titov et al. (2011) Nat. Chem. Biol. 7:182-88). Briefly, a 10-μl reaction mixture contained 20 mM Tris (pH 7.9), 4 mM MgCl2, 1 μM of ATP, 0.1 μCi [^γ-^32P]ATP (3000 Ci/mmol), 100 μg/ml BSA, 100 nM RNA Polymerase II promoter positive control DNA, 1 nM TFIIH and indicated concentrations of triptolide or its analogs. The reactions were started by either addition of TFIIH for 2 hr and stopped by addition of 2 μl of 0.5 M EDTA. An aliquot of 1 μl reaction mixture was spotted on PEI-cellulose (sigma) and the chromatogram was developed with 0.5 M LiCi and 1 M HCOOH. The percent of ATP hydrolysis was quantified using a Typhoon FLA 9500 Variable Imager (GE Healthcare).

HEK 293T cells = experiment: HEK293T cell proliferation assay ([3H]-thymidine incorporation); format: cell-based, human; conditions: Homo sapiens; anti-proliferative activity, HEK 293T cells, 24 h drug exposure; read-out: IC50 ± SEM
Description: Cells and culture conditions. Primary astrocytes (Lonza, Walkersville, Md.; ABM™ Basal Media with AGM™ SingleQuots™ Supplement Pack), fibroblast (ATCC; Fibroblast Basal Medium (ATCC© PCS-201-030™) with Fibroblast Growth Kit-Serum-free (ATCC© PCS-201-040™)), airway epithelial cell (ATCC; Airway Epithelial Cell Basal Medium (ATCC© PCS-300-030™) with Bronchial Epithelial Cell Growth Kit (ATCC© PCS-300-040™)), renal proximal tubule (ATCC; Renal Epithelial Cell Basal Medium (ATCC© PCS-400-030™) with Renal Epithelial Cell Growth Kit (ATCC© PCS-400-040™)), prostate epithelial cell (Lonza; PrEGM™ BulletKit™) and mammary epithelial cell (Lonza; MEBM™ BulletKit™) were kept in a humidified incubator at 37° C. adjusted to 5% CO2. Prostate (PC3, LNCaP, DU-145), breast (MDA-MB-231, MDA-MB-453, SK-BR-3), head and neck (A253, Detroit 562, SCC-25), melanoma (SK-Mel-3, SK-Mel-1, RPMI-7951), pancreatic (CfPAC-1, BxPC3, SW1990), lung (A549, NCI-H1299, NCI-H1437) and liver (SNU-475, SK-HEP-1, SNU-387) cancer cell lines were obtained from ATCC and cultured in their respective media (prostate cells: RPMI-1640, MDA-MB-231: RPMI-1640, MDA-MB-453: Leibovitz's L-15, SK-BR-3: McCoy's 5a, A253: McCoy's 5a, Detroit 562: EMEM, SCC-25: DMEM, SK-Mel-3: McCoy's 5a, SK-Mel-1: EMEM, RPMI-7951: EMEM), CfPAC-1: IMDM, BxPC3: RPMI-1640, SW1990: Leibovitz's L-15), A549: F-12K, NCI-H1299: RPMI-1640, NCI-H1437: RPMI-1640, SNU-475: RPMI-1640, SK-HEP-1: EMEM, SNU-387: RPMI-1640. All media were supplemented with 10% (vol/vol) filtered fetal bovine serum (FBS, Invitrogen, Carlsbad, Calif.), 1% penicillin/streptomycin (Invitrogen) and maintained in a humidified incubator at 37° C. with 5% CO2 except for MDA-MB-453 and SW1990 grown at 37° C. without CO2 control. Wild type (ATCC) and C342T XPB knock-in cells (named T7115) of Human Embryonic Kidney 293T (HEK293T), HeLa (ATCC) were cultured in DMEM (GIBCO) with 10% (vol/vol) filtered fetal bovine serum (FBS, Invitrogen, Carlsbad, Calif.), 1% penicillin/streptomycin (Invitrogen).
as §3

## CC(C)[C@]12O[C@H]1[C@@H]1O[C@]13[C@]1(O[C@H]1C[C@H]1C4=C(CC[C@@]13C)C(=O)OC4)[C@@H]2O [TPL, (1S,2S,4S,5S,7R,8R,9S,11S,13 S)-8-hydroxy-1-methyl-7-propan-2-yl-3,6,10,16 tetraoxaheptacyclo[11.7.0.02,4.02,9.05,7.09,11.014,18] icos-14(18)-en-17-one, reference compound]
MDA MB231 cells
  effect of hypoxia on anti-proliferative effect: modest anti-proliferative effect
[1]
  Maximum serum levels: 58.5 ng/mL
  Maximum serum levels (molar): ~0.16 mM
[2]
  Rpb1 level: Rpb1 levels resemble DMSO control
[3]
  sensitivity of T7115 mutant line (proliferation): resistant
MCF-7
  effect of hypoxia on anti-proliferative effect: modest anti-proliferative effect
HepG2
  effect of hypoxia on anti-proliferative effect: showed resistance upon hypoxia
PC3 cells; PC3, hypoxic conditions (1% O2)
  IC50: 1.5 nM
PC3 cells; PC3, normoxic conditions (20% O2)
  IC50: 4.5 nM
PC3 cells; PC3, hypoxia versus normoxia
  fold enhancement of anti-proliferative effect during hypoxia: three-fold
Rpb1 in 293T WT cells
  degradation of Rpb1: leads to the degradation of the Rpb1 subunit
HeLa
  effect of hypoxia on anti-proliferative effect: modest anti-proliferative effect
TFIIH
  inhibition of ATPase activity of TFIIH: effectively suppresses activity
TFIIH; listed as triptolide
  inhibition of ATPase activity of TFIIH: nearly completely inhibited
HEK 293T cells
  IC50: 5.6 nM

From US20230134986A1, “GLUCOSE TRIPTOLIDE CONJUGATES AND USES THEREOF” (The Johns Hopkins University, priority 2020, published 2023)
